Earlier results on one substance are cited in patent US20100227830A1, “USE OF ESCIN” (MARINOMED BIOTECHNOLOGIE GMBH, priority 2006, published 2010).

In this series the test system is nuclear factor-KB (NF-κB). The following applies: after traumatic brain injury in rats.

As to β-escin, the “NF-κB expression level in tissue” value is recorded as “significant reduction of NF-κB expression level”.
